Experimental data reported in patent publication US20260193274A1, “AKT1 MODULATORS” (Alterome Therapeutics, Inc., priority 2022, published 2026).

Target: T1, AKT1-E17K (Homo sapiens, UniProt P31749, E17K)
T1 construct: host or cells: HEK-293 (ATCC CRL-1573)
Test: NanoBRET Target Engagement (TE) Assay
Type: cell-based
Details: full length AKT E17K NanoLuc fusion in transfected HEK-293 cells; 2 hr equilibration with tracer and compound
Source text: NanoBRET is a highly specific and validated cell-based technique for assessing target engagement (Vasta et al., 2018, Cell Chem Biol. 25(2):206-214). The NanoBRET™ Target Engagement (TE) Intracellular Kinase Assays are based on the NanoBRET™ System (Promega Corporation), an energy transfer technique designed to measure molecular proximity in living cells. The NanoBRET™ TE Assays measure the apparent affinity of test compounds by competitive displacement of the NanoBRET™ tracer compound, which is a cell permeable molecule engineered to be reversibly bound to a NanoLuc® luciferase-kinase fusion expressed in cells. For compound screening, when a test compound binds to the selected kinase, the BRET signal is attenuated. For kinase inhibitors in particular, intracellular target selectivity is fundamental to pharmacological mechanism and allows the proteins of interest to be in the correct cellular confirmation. Although non-cell-based techniques have been developed to measure kinase binding or enzymatic inhibition with accuracy and precision, such approaches can fail to accurately predict engagement of the full-length target protein in the more complex and biologically relevant cellular context (Knight and Shokat, 2005, Chem. Biol. 12, 621-637; Smyth and Collins, 2009, J. Chem. Biol. 2, 131-151). […] Briefly, HEK-293 cells (ATCC Cat #CRL-1573) were used for transfection purposes using FuGENE HD Transfection Reagent (Promega Cat #E2311). All cells were evaluated for viability prior to transfection and optimization of the transfection was done prior to experimentation. Greater than 95% viability was used for all experiments. Following transfection, cells were washed and resuspended in Opti-MEM. NanoBRET assays were performed in white, 384-well plates (Corning) at a density of 2×10^5 cells/well. All example compounds were prepared as concentrated stock solutions in DMSO (Sigma-Aldrich). Compounds are dissolved in DMSO to make 10 mM stock solution. Example compounds were transferred as 40 μL of 10 mM stock solution to a 384 pp-plate (LABCYTE, PP-0200) and diluted in 3-fold, 10-point dilution via transferring […] by Apricot liquid handler. A Labcyte ECHO 550 compound dispenser was used to facilitate compound transfer directly to cells. Cells were equilibrated for 2 hr with energy transfer probes and example compound prior to BRET measurements. The AKTE17K (Promega Cat #NV2421) as well as specific probe (NanoBRET tracer, Promega Cat #N264B) was prepared at a concentration of 20× in tracer dilution buffer (12.5 mM HEPES, 31.25% PEG-400, pH 7.5). For target engagement analysis, the energy transfer probes were added to the cells at concentrations optimized for the target in question (AKT E17K). Following compound incubation, NanoBRET NanoGlo Substrate (Promega Cat #N157D) and Extracellular Nanoluc Inhibitor (Promega Cat #N235C) was added according to the manufacturer's recommended protocol, and luminescence was measured on Envision Reader (Perkin Elmer) Multimode Luminometer equipped with 450 nmBPfilter (donor) and 600 nmLPfilter (acceptor), using 0.5 s integration time. Milli-BRET units (mBU) are calculated by multiplying the raw BRET values by 1000. Apparent tracer affinity values (EC50) were determined using the sigmoidal dose-response (variable slope). Competitive displacement data were then plotted and data were fit to determine the EC50 value for each example compound.

T1 sequence (P31749 whole entry E17K): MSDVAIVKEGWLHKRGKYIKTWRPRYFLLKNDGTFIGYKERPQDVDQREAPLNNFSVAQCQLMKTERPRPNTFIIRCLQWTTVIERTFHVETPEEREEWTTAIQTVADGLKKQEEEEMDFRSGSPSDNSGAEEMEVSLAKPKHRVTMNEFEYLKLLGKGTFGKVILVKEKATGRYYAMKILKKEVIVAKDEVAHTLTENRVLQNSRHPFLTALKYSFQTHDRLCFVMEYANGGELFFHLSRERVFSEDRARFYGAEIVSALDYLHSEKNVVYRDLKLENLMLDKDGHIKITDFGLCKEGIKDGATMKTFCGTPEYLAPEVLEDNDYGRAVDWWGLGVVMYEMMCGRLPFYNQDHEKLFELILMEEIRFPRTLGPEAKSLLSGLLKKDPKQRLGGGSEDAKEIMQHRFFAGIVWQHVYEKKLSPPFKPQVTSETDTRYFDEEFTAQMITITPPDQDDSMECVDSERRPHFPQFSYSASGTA

SMILES	IC50 [nM]
C[C@@H]1CN(Cc2ccc(-n3c(-c4cccnc4N)nc4ccc(-c5ccccc5)nc43)cc2)C[C@@H](C)N1C#N [Example 26, (2R,6R)-4-(4-(2-(2-Aminopyridin-3-yl)-5-phenyl-3H-imidazo[4,5-b]pyridin-3-yl)benzyl)-2,6-dimethylpiperazine-1-carbonitrile]	> 600
C[C@@H]1CN(Cc2ccc(-n3c(-c4cccnc4N)nc4ccc(-c5ccccc5)nc43)cc2)CCN1C#N [Example 27, (R)-4-(4-(2-(2-Aminopyridin-3-yl)-5-phenyl-3H-imidazo[4,5-b]pyridin-3-yl)benzyl)-2-methylpiperazine-1-carbonitrile]	> 600
C[C@H]1CN(Cc2ccc(-n3c(-c4cccnc4N)nc4ccc(-c5ccccc5)nc43)cc2)CCN1C#N [Example 32, (S)-4-(4-(2-(2-Aminopyridin-3-yl)-5-phenyl-3H-imidazo[4,5-b]pyridin-3-yl)benzyl)-2-methylpiperazine-1-carbonitrile]	> 600
N#CN1C[C@@H]2C[C@H]1CN2Cc1ccc(-n2c(-c3cccnc3N)nc3ccc(-c4ccccc4)nc32)cc1 [Example 34, (1S,4S)-5-(4-(2-(2-Aminopyridin-3-yl)-5-phenyl-3H-imidazo[4,5-b]pyridin-3-yl)benzyl)-2,5-diazabicyclo[2.2.1]heptane-2-carbonitrile]	60 to 600
N#CN1C[C@H]2C[C@@H]1CN2Cc1ccc(-n2c(-c3cccnc3N)nc3ccc(-c4ccccc4)nc32)cc1 [Example 35, (1R,4R)-5-(4-(2-(2-Aminopyridin-3-yl)-5-phenyl-3H-imidazo[4,5-b]pyridin-3-yl)benzyl)-2,5-diazabicyclo[2.2.1]heptane-2-carbonitrile]	60 to 600
C[C@@H]1CN(Cc2ccc(-n3c(-c4cccnc4N)nc4ccc(-c5ccccc5)nc43)cc2)C[C@H](C)N1C#N [Example 36, (2S,6R)-4-(4-(2-(2-Aminopyridin-3-yl)-5-phenyl-3H-imidazo[4,5-b]pyridin-3-yl)benzyl)-2,6-dimethylpiperazine-1-carbonitrile]	> 600
N#CN1CC2CCC1CN2Cc1ccc(-n2c(-c3cccnc3N)nc3ccc(-c4ccccc4)nc32)cc1 (stereo not drawn) [Example 37, 5-(4-(2-(2-Aminopyridin-3-yl)-5-phenyl-3H-imidazo[4,5-b]pyridin-3-yl)benzyl)-2,5-diazabicyclo[2.2.2]octane-2-carbonitrile]	60 to 600

Next, values leading:

IC50 [nM]	SMILES
60 to 600	N#CN1C2CCC1CN(Cc1ccc(-n3c(-c4cccnc4N)nc4ccc(-c5ccccc5)nc43)cc1)C2 [Example 28, 3-(4-(2-(2-Aminopyridin-3-yl)-5-phenyl-3H-imidazo[4,5-b]pyridin-3-yl)benzyl)-3,8-diazabicyclo[3.2.1]octane-8-carbonitrile]
15 to 60	N#CN1CC2CCC(C1)N2Cc1ccc(-n2c(-c3cccnc3N)nc3ccc(-c4ccccc4)nc32)cc1 [Example 29, 8-(4-(2-(2-Aminopyridin-3-yl)-5-phenyl-3H-imidazo[4,5-b]pyridin-3-yl)benzyl)-3,8-diazabicyclo[3.2.1]octane-3-carbonitrile]
15 to 60	N#CNC1CCCN(Cc2ccc(-n3c(-c4cccnc4N)nc4ccc(-c5ccccc5)nc43)cc2)CC1 (stereo not drawn) [Example 30, N-(1-(4-(2-(2-Aminopyridin-3-yl)-5-phenyl-3H-imidazo[4,5-b]pyridin-3-yl)benzyl)azepan-4-yl)cyanamide]
60 to 600	N#CNC1CCCCN(Cc2ccc(-n3c(-c4cccnc4N)nc4ccc(-c5ccccc5)nc43)cc2)C1 (stereo not drawn) [Example 31, N-(1-(4-(2-(2-Aminopyridin-3-yl)-5-phenyl-3H-imidazo[4,5-b]pyridin-3-yl)benzyl)azepan-3-yl)cyanamide]
60 to 600	N#CN1CCN(Cc2ccc(-n3c(-c4cccnc4N)nc4ccc(-c5ccccc5)nc43)cc2)CC12CC2 [Example 33, 7-(4-(2-(2-Aminopyridin-3-yl)-5-phenyl-3H-imidazo[4,5-b]pyridin-3-yl)benzyl)-4,7-diazaspiro[2.5]octane-4-carbonitrile]
